Reference: patent US8530513B1, “Pharmaceutical uses of diterpene excavatolide B from a coral or an analogue thereof” (National Sun Yat-Sen University, priority 2012, dated 2013)

What was measured:
[1] = system: abdominal skins of female C57BL/6 mice; assay: TPA-induced edema, H&E-stained skin sections; type: in vivo, mouse; conditions: topical 1 mg/site for 6 h after TPA
Procedure: (§1) Mice were treated or not treated topically on their shaven abdomens with acetone (vehicle only) or TPA (10 nmol in 200 μl acetone/site) for 6 h or treated first with TPA for 10 min, then with the indicated concentrations of BrD1 for 6 h. Mice were killed by cervical dislocation. Abdominal skin tissues were collected, fixed with formalin buffer and embedded in paraffin. Tissue sections ([…]) were cut and laid onto silanized glass slides and deparaffinized three times with xylene for 5 min each prior to rehydration using a graded alcohol bath. For hematoxyline and eosin staining, the sections were stained with hematoxyline and eosin staining. For immunohistochemical staining, the deparaffinized sections were boiled in 10 mM citrate buffer (pH 6.0) for 10 min for antigen retrieval and rinsed with PBS containing 0.05% Tween-20 buffer for 5 min. The sections were treated with 3% hydrogen peroxide in methanol for 15 min to decrease non-specific binding. […] Subsequently, peroxidase-binding sites were determined by staining with 3,3′-diaminobenzidine tetrahydrochloride (Dako). […]
Since increased vascular permeability is one of factors contributing to the formation of edema, we next evaluated whether BrD1 inhibited formation of edema in TPA-induced inflammation by examining H&E-stained longitudinal sections of skin samples.

iNOS = assay: TPA-induced iNOS expression in mouse skin, immunohistochemical staining; type: in vivo; conditions: topical for 6 h after TPA, anti-iNOS immunostaining
Procedure: as §1, with “binding. They were subsequently washed with blocking solution (PBS containing 1% BSA) for 30 min and then PBST twice for 5 min. All slides were incubated first with 2% goat serum in blocking solution for 30 min, then with a 1:200 dilution of polyclonal iNOS antibody (eBioscience, San Diego, Calif.) at room temperature for 1 h.” for “binding.”

MMP-9 = assay: TPA-induced MMP-9 protein expression in mouse skin, western blot; type: in vivo; conditions: for TPA-induced MMP-9 protein expression (in words): topical after TPA, 24 h, indicated concentrations
Procedure: Shaven abdominal skins of female C57BL/6JNarl mice were not treated or topically treated with vehicle (acetone, 200 μl/site) or TPA (10 nmol in 200 μl acetone/site) at indicated time points or treated first with TPA for 10 min, then with the indicated concentrations of BrD1 at the indicated time points. Abdominal skin samples were collected, homogenated and lysed to prepare total proteins. Protein samples were subsequently resolved by SDS-PAGE using a gradient gel. The resolved proteins were transferred to a PVDF Immobilon-P membrane (Millipore, Bedford, Calif.), and the membrane was blocked with 5% non-fat dry milk in PBST buffer (phosphate-buffered saline (PBS) containing 0.1% Tween 20) for 60 minutes at room temperature. The membranes were incubated overnight at 4° C. with commercially available antibodies (1:1000 dilutions). Loading of equal amounts of protein was assessed using mouse β-actin. The blots were rinsed three times with PBST buffer for 5 minutes. Washed blots were incubated with HRP-conjugated secondary antibody (1:100,000 dilution), then washed again three times with PBST buffer. The transferred proteins were visualized with an enhanced chemiluminescence (ECL) detection kit (Amersham Pharmacia Biotech, Buckinghamshire, UK). Quantification of bands was performed using Image J software.
Matrix metalloproteinases (MMPs) play a crucial role in many physiological and pathological processes through remodeling extracellular matrix tissues (Stamenkovic I. J Pathol 2003, 200:448-464). Matrix metalloproteinase-9 (MMP-9), a gelatinase which has a key role in inflammatory response, is activated in skin during tissue injury (Shakarjian M P, Bhatt P, Gordon M K, Chang Y C, Casbohm S L, Rudge T L, Kiser R C, Sabourin C L, Casillas R P, Ohman-Strickland P, Riley D J, Gerecke D R. J Appl Toxicol 2006, 26:239-246). In order to evaluate the anti-inflammatory effect of BrD1 on MMP-9 activation in TPA-inflamed skin, BrD1 was topically applied after TPA treatment for 24 h. […] Inhibiton of TPA-inducedMMP-9 expression by BrD1 treatment could also be readily observed at the mRNA level.

With CCCC(=O)O[C@H]1C/C(C)=C\[C@@H]2OC(=O)[C@]3(C)O[C@]23[C@@H](OC(C)=O)[C@H]2[C@@H](C)[C@@H](O)C[C@H](OC(C)=O)[C@]2(C)[C@H]1OC(C)=O [BrD1, excavatolide B] the “skin thickness (TPA-induced edema)” value [1] was “substantially decreased the skin thickness”, the “skin thickness (TPA-induced edema)” value ([1]; listed as excavatolide B) was “substantially decreases the skin thickness” and the “TPA-induced iNOS expression” value (iNOS) was “markedly reduced the TPA-induced iNOS expression in the epidermal and dermal layers”. For the same molecule, the “TPA-induced iNOS expression” value (iNOS; listed as excavatolide B) was “markedly reduces the TPA-induced iNOS expression in the epidermal and dermal layers”, the “inhibition of TPA-induced MMP-9 protein expression” value (MMP-9; 1 mg/site/mouse topical, 24 h after TPA) was at most 89% and the “TPA-induced MMP-9 protein expression (in words)” value (MMP-9) was “significantly inhibited TPA-induced MMP-9 protein expression in a dose-dependent manner”. For the same molecule, the “TPA-induced MMP-9 protein expression (in words)” value (MMP-9; listed as excavatolide B) was “significantly inhibits TPA-induced MMP-9 protein expression in a dose-dependent manner”.
